Results on one molecule are retold here after ChEMBL document CHEMBL3862025, “Novel substituted hydrazono indolo[2,1-b]quinazoline-6,12-dione analogues as cytostatic agents: Synthesis, crystal structure, biological evaluation and molecular docking studies” (Bioorg Med Chem Lett, 2016).

The structures appear in SMILES notation. In brackets after ≈: the same amount, converted by molar mass. A value given as a limit tells only on which side of the number the result lay.

Series [1] relates to Escherichia coli. Briefly: Antibacterial activity against Escherichia coli after 24 hrs by broth dilution method. In kind it is functional. (In general: Dilution methods test growth across graded concentrations, often in twofold steps.)
A short description of series [2]: Cytotoxicity against human HeLa cells assessed as inhibition of cell viability after 48 hrs by MTT assay. In kind it is functional, cell-based. Background: Tetrazolium assays rely on reduction of a dye to a coloured formazan, in cell work by metabolically active cells.
Series [3] has as its system Klebsiella pneumoniae. Briefly: Antibacterial activity against Klebsiella pneumoniae after 24 hrs by broth dilution method. In kind it is functional.
Series [4] relates to Aspergillus niger. Briefly: Antifungal activity against Aspergillus niger by agar streak dilution method. In kind it is functional.
Series [5] can be described thus: Cytotoxicity against human MCF7 cells assessed as inhibition of cell viability after 48 hrs by MTT assay. In kind it is functional, cell-based. The following applies: MCF7, 48 h.
A short description of series [6]: Cytotoxicity against HEK293 cells assessed as inhibition of cell viability after 48 hrs by MTT assay. In kind it is toxicity, cell-based. The following applies: human.
The nature of series [7]: Antifungal activity against Penicillium notatum by agar streak dilution method. In kind it is functional. The conditions noted are these: Penicillium chrysogenum.
In series [8] the test system is Staphylococcus aureus. Briefly: Antibacterial activity against Staphylococcus aureus after 24 hrs by broth dilution method. In kind it is functional.
Series [9] can be described thus: Cytotoxicity against human A549 cells assessed as inhibition of cell viability after 48 hrs by MTT assay. In kind it is functional, cell-based. The following applies: A549, 48 h.
Series [10] has as its system Bacillus subtilis. The series can be described thus: Antibacterial activity against Bacillus subtilis after 24 hrs by broth dilution method. In kind it is functional.

With `CC(C=C(O)c1ccccc1)=N/N=C1/c2cc(Br)ccc2-n2c1nc1ccccc1c2=O`, the MIC (in general, the smallest concentration in the dilution series that meets the test's criterion for growth inhibition) in series [1] was > 100 µg/mL; in series [3], > 100 µg/mL; in [4], 25 µg/mL (≈ 51.5 µM); in series [7] it was 25 µg/mL (≈ 51.5 µM); in series [8] it was > 100 µg/mL; in series [10], > 100 µg/mL. For the same molecule, the IC50 (in general, the point on the concentration scale where inhibition reaches its midpoint) came out at 10.6 µM in series [2], 7.14 µM in series [5] and 9.18 µM in series [9]. Further, in series [6], the IC50 at 48 h worked out at 46.1 µM.
